{"source": "patent US20060190192A1", "about": "“Databases for assessing nucleic acids” (Medical College of Ohio, priority 2005, published 2006)", "key": {"[1]": {"tested_on": "cytochrome p450 (CYP) IAI gene", "assay": "MC RT-PCR with Celi competitive templates: induction of CYPIAI gene expression in β-napthoflavone-exposed BEP2D cells", "assay_type": "cell-based, human", "details": "β-napthoflavone 10 μM, control 0.1% DMSO, cDNA loading matched by GAPDH native/competitive template bands", "description": "(§1) In a second set of experiments, multiplex competitive reverse transcriptase polymerase chain reaction (MC RT-PCR) with competitive templates were prepared by the Celi method to evaluate the cytochrome p450 (CYP) IAI gene in β-napthoflavone-exposed BEP2D cells. The induction of CYPIAI gene expression was evaluated using both MC RT-PCR with Celi competitive templates, and Northern analysis. Competitive templates were prepared for both the CYPIAI and GAPDH genes. The primers used to prepare the competitive template for GAPDH were: […]\nThe PCR amplification conditions were the same as described for experiments using the competitive templates prepared for GAPDH and GSHPx by the Higuchi method except the annealing temperature was 55 degrees centigrade and the amplification was carried out for 38 cycles.\nBecause the native and competitive templates separate without prior restriction endonuclease digestion, samples were taken directly from the PCR reaction tube and applied to ethidium bromide stained 3% Nusieve, 1% LE agarose gels. It was then possible to quantify the products by taking a negative photograph of the gel using Polaroid 665 positive/negative instant film, subjecting the negative photograph to densitometry. […]"}, "[2]": {"tested_on": "cytochrome p450 (CYP) IAI gene", "assay": "Northern analysis of CYPIAI gene expression in β-napthoflavone-exposed BEP2D cells", "assay_type": "cell-based, human", "details": "β-napthoflavone 10 μM vs 0.1% DMSO control, 32P-labeled CYPIAI cDNA probe", "description": "as §1\nRNA from BEP2D cells incubated for varying times with β-napthoflavone (10 μM) was either electrophoresed on a 1% LE formaldehyde denaturing gel for Northern analysis or MC RT-PCR amplified, as described above. For Northern analysis, following transfer of the RNA to GeneScreen, the filters were hybridized with ^32P-labeled CYPIAI cDNA.\nFIG. 36A illustrates Northern analysis of RNA obtained from BEP2D cells that were treated with 0.1% DMSO as a control, or, β-napthoflavone in an effort to induce cytochrome p450 IA1 (CYPIA1). FIG. 36B illustrates DNA PCR-amplified from serial dilutions of cDNA from the same cells used in FIG. 36SA. The cDNA was co-amplified in the presence of competitive templates for GAPDH and CYPIAI, according to some embodiments of the instant invention."}}, "data": [{"compound": "O=c1cc(-c2ccccc2)oc2ccc3ccccc3c12", "note": "[β-napthoflavone]", "values": [{"measurement": "band representing the native CYPIAI gene, exposed cells compared to control cells", "setting": "[1]", "result": "much more strongly represented"}, {"measurement": "gene expression of the CYPIAI gene", "setting": "[2]", "result": "increase"}]}]}
